Test results as given in patent US5834435A, “Inhibition of TNF-α pleiotropic and cytotoxic effects” (priority 1996, dated 1998).

Assays:
[1] = test system: isolated cardiac myocytes; assay: Effects of TNF-α on contractivity of adult cardiac myocytes (cell shortening, video edge detection); format: cell-based, human
Method: Myocardial samples were obtained from organ donors, whose hearts were initially considered for cardiac transplantation but were subsequently deemed unsuitable for transplantation because of blood type or size incompatibility. Freshly isolated myocytes were treated for 60 minutes at 37° C. with single concentration of GMDP (5 μg/ml). Control cells were treated with single concentration of recombinant human TNF-α (Genzyme) that is known to produce negative inotropic effects in isolated cardiac myocytes (200 μ/ml). Cell motion was characterized with video edge detection as previously described in detail (17). Results were expressed as percentage change in cell length from resting values.

[2] = test system: isolated cardiac myocytes; assay: Intracellular fluorescence brightness in isolated cardiac myocytes; format: cell-based; conditions: 200 μ/ml TNF-α; n=45 cells/group; FIG. 7 insert
From the text: As shown, the peak level of intracellular fluorescence brightness was reduced strikingly for the cells treated with 200 μ/ml TNF-α.

[3] = test system: patients with terminate stage of cancer
From the text: Results were expressed as percentage change in both triglycerides and cholesterol level from pretreatment values.

[4] = test system: patients with terminate stage of cancer; remark: listed apart in the source
From the text: 27 patients with terminate stage of cancer participated in this study. The study group consisted of 19 females and 8 males between 14 and 59 years of age. 3 of them have had malignant brain tumors glioblastoma multiforme, 9 patients had breast carcinoma with massive metastasis to the liver or brain, one patient had intermediate stage lymphoma, one of them had stomach cancer with liver metastasis, three patients had hepatomas with lung metastasis, and two of them pancreatic cancer with liver metastasis.
19 patients were given GMDP orally at dosage of 50 mg daily as a water solution for fourteen days. 8 patients received a placebo.
Results were expressed as percentage change in LDH activity from pretreatment values.

[5] = test system: E6/1.2 anti-GMDP monoclonal antibody; assay: Antibody capture assay with antigen competition variation; format: binding, mouse; conditions: 1 μg/well and 0.1 μg/well GMDP-Lys-PAA; FIGS. 1A,B and 2
From the text: Antibody capture assay (Antibodies: A laboratory Manual (E. Harlow and D. Lane, eds.), Cold Spring Harbor Laboratory, 1988) with antigen competition variation has been used to detect GMDP in human […]. Highly specific mouse E6/1.2 anti-GMDP monoclonal antibody (Ka=2×10^9 M^-1) and GMDP conjugated to polyacrylamide backbone through amino group of lysine (GMDP-Lys-PAA) were obtained from Dr. Nesmeyanov, the Shemyakin and Ovchinnikov Institute of Bioorganic Chemistry, Russian Academy of Sciences, Moscow, Russia.
Briefly, GMDP-Lys-PAA or serial dilutions of human female milk in phosphate buffered saline (PBS) were adsorbed onto wells of microtiter plates for several hours. After washing with PBS, remaining binding sites were blocked by 1 h incubations with 200 μl PBS+3% bovine serum albumin (BSA). After washing with PBS 100 μl of E6/1.2 antibody, diluted 1:1,000 or 1:2,000 with PBS+1% BSA, were added. The incubation was carried out for 1 h at room temperature. […] Optical density at 492 nm was measured.
Two different amounts of GMDP-Lys-PAA in PBS were adsorbed onto wells of microtiter plates (1 μg/well and 0.1 μg/well). […] Inhibition index (I,%) was calculated from: I=(1-Ao/A1)×100, where Ao and A1 are optical densities of samples without or with inhibitor, respectively.

| Compound | cell shortening ([1]; cells treated with TNF-α vs control, n=40 cells/group, FIG. 6) | decrease in the percent change in peak intensity of fluorescence brightness [2] | reduction of elevated cholesterol level (percentage change from pretreatment values) ([3]; patient treated with GMDP, FIG. 10) | decreasing for triglycerides concentration (percentage change from pretreatment values) ([3]; treated patients with elevated triglycerides, FIG. 9) | overall clinical condition during the follow up period ([4]; all patients treated with GMDP) | side effects ([4]; orally 50 mg daily as water solution for fourteen days) | decreasing of LDH activity (percentage change from pretreatment values) ([4]; orally 50 mg daily, fourteen days, lowest level at the fourteenth day, FIG. 8) | nausea and vomiting subsided ([4]; patients who had these symptoms of tumor toxicity before treatment) | negative inotropic effects of TNF-α in isolated cardiac myocytes ([1]; FIGS. 6 and 7 taken together) | effects of TNF alfa on cell shortening after pretreatment ([1]; GMDP 5 μg/ml, 60 minutes at 37° C., 200 μ/ml TNF alfa, FIG. 6) | inhibition of E6/1.2 antibody interaction with the adsorbed GMDP-Lys-PAA [5] |
| --- | --- | --- | --- | --- | --- | --- | --- | --- | --- | --- | --- |
| TNF-α [reference compound] | concentration-dependent decrease | ~ 38% | – | – | – | – | – | – | – | – | – |
| CC(=O)NC1C(OC2C(CO)OC(O)C(NC(C)=O)C2OC(C)C(=O)NC(C)C(=O)NC(CCC(=O)O)C(N)=O)OC(CO)C(O)C1O [GMDP, N-acetyl-D-glucosaminyl-(β1-4)-N-acetylmuramyl-L-alanyl-D-isoglutamine] | – | – | 51% | 82% | improved | None | 68% | 7 patients | inhibits | completely attenuated | inhibition |
